This is an account of results in PubChem BioAssay AID1963840 (Molecular Pharmacology Branch, DTP, NCI, 2024).

Where “and” joins values, the source holds several entries; their conditions need not be identical. Equal values may be shown once.
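Also: spheroids exposed to compounds for seven days.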

For one assay, the system named is 695427-040-R-J1-PDC complex spheroid viability. The assay can be described thus: Anticancer human tumor 695427-040-R-J1-PDC patient-derived colon adenocarcinoma cell line growth inhibition [POLQ]. Conditions: compound 1 µM; stronger effect = lower value. As to the method:
Multicellular complex tumor spheroid response to Polymerase (POL) inhibitors (novobiocin, ART-558, RP6685) in combination with a variety of drugs and investigational agents in selected tumor cell lines
The POL inhibitors (novobiocin, ART-558, and RP6685) were evaluated both individually and in combination with standard of care and investigational anticancer small molecules within a complex spheroid model of solid tumors. . Complex spheroids include a stromal component modeled by human endothelial cells (HUVEC) and fibroblasts modeled by human mesenchymal stem cells (MSCs). The concentration ranges selected for each drug and investigational agent were based upon clinically achievable concentrations if the clinical Cmax of the agent was known.
Compounds. The drugs and investigational agents: novobiocin (NSC847541), ART-558 (NSC835418), RP-6685 (NSC848927), peposertib (NSC802822), ceralasertib (NSC780249), elimusertib (NSC800525), camonsertib (NSC841442), AZD-1390 (NSC803789), olaparib (NSC753686), talazoparib (NSC767125), rucaparib (NSC756644), sotorasib (NSC818433), MRTX-1133 (NSC836407), SN-38 (NSC673596), topotecan (NSC609699), epotoside (NSC141540), doxorubicin (NSC123127), gemcitabine (NSC613327), 5-fluorouracil (NSC19893), paclitaxel (NSC125973), vemurafenib (NSC761431), MSA-2 (NSC828583), SN-011 (NSC837082), adavosertib (NSC754352), prexasertib (NSC758257), carboplatin (NSC241240) and oxaliplatin (NSC266046), were obtained from the National Cancer Institute (NCI) Developmental Therapeutics Program Chemical Repository (21). The FDA-approved anticancer drug set is available from the Developmental Therapeutics Program at https://dtp.cancer.gov/organization/dscb/obtaining/. […] The stock solutions were prepared in dimethyl sulfoxide (DMSO, Sigma-Aldrich, St. Louis, MO, cat. D2650), except for the platinum compounds which were prepared in saline (Quality Biological, Gaithersburg, MD, cat. 114-055-101), at 800-fold the tested concentration and stored at -70 degrees C prior to their use. All drugs and investigational agents were tested over a range starting from a high concentration at or near the clinical Cmax and decreasing in half-log increments. If the clinical Cmax for an agent had not been determined, the highest concentration tested was 10 microM, except for SN-38, which was tested at a high concentration of 1 microM.
Cell Culture. All cells were maintained in an incubator at 37 degrees C and 5% CO2 with 95% humidity. The PDC lines were cultured according to standard operating procedures established by the NCI PDMR (https://pdmr.cancer.gov). Table 3 of the manuscript, lists the cell lines along with the number of the three cell types plated to form the mct-spheroids and media for tumor cell growth. After thawing, all PDC lines, except 997537-175-T-J1-PDC and 415267-285-R-J2-PDC, were cultured in Matrigel-coated flasks prepared with a working solution of 1X Ham's F-12 nutrient mix, without supplementation (Thermo Fisher Scientific, cat. 11765054), 100 U/mL penicillin-streptomycin (Thermo Fisher Scientific, cat. 15140122), and 2.5% Matrigel (Corning Inc., Corning, NY, cat. 354248) for the first three passages. The two PDC lines 997537-175-T-J1-PDC and 415267-285-R-J2-PDC were cultured on uncoated flasks. The 857933-349-R-J2-PDC line was cultured in 6C/Colon 1B media containing advanced DMEM/F-12 (Thermo Fisher Scientific, cat. 12634028), 10 mM HEPES (Thermo Fisher Scientific, cat. 15630080), 1X GlutaMAX supplement (Thermo Fisher Scientific, cat. 35050061), 0.1 mg/mL primocin (InvivoGen, San Diego, CA, cat. ant-pm-2), 10% defined fetal bovine serum, heat inactivated (HyClone Laboratories Inc., Logan, UT, cat. SH30070.03HI), 50% L-WRN conditioned media (ATCC, cat. CRL-3276), 1.25 mM N-Acetyl-L-cysteine (Sigma-Aldrich, cat. A9165), 10 mM nicotinamide (Sigma-Aldrich, cat. N0636), 1X B-27 supplement (Thermo Fisher Scientific, cat. 17504044), 1X N-2 supplement (Thermo Fisher Scientific, cat. […]
As for `CNCc1ccc(-c2[nH]c3cc(F)cc4c3c2CCNC4=O)cc1`, the viability, T/C (as a rule, the ratio of treated to control) was 104% and 102% and 105%.

Take `COc1cc(C2c3cc4c(cc3C(OC3OC5COC(C)OC5C(O)C3O)C3COC(=O)C23)OCO4)cc(OC)c1O` (configuration not stated): the viability, T/C was 97.5% (2×) and 101%.

As to `COc1cc2cc(C(=O)CCC(=O)O)sc2cc1OC`, the viability, T/C is 104% and 105% and 107%.

As to `COc1ccc([C@@H](O)c2cc(-c3ncnc4cc(N5CCOCC5)ccc34)c(F)cc2Cl)nn1`, the viability, T/C is 91.9% and 94.2% and 96.2%.

On to `Nc1ccn(C2OC(CO)C(O)C2(F)F)c(=O)n1` (configuration not stated), for which the viability, T/C was 71.8% and 78.5% and 69%.

With `O=C(c1cc(Cc2n[nH]c(=O)c3ccccc23)ccc1F)N1CCN(C(=O)C2CC2)CC1`, the viability, T/C was 99% and 107% and 102%.

Staying with this assay, now noted: compound 3.16 µM; stronger effect = lower value.
In the case of `C=CC(=O)N1CCN(c2nc(=O)n(-c3c(C)ccnc3C(C)C)c3nc(-c4c(O)cccc4F)c(F)cc23)C(C)C1` (configuration not stated), the viability, T/C was 105% and 91.4% and 112%.

In the case of `CC(C)n1c(=O)n(C)c2cnc3cc(F)c(-c4ccc(OCCCN5CCCCC5)nc4)cc3c21`, the viability, T/C is 104% and 108% and 101%.

Turning to `CC1COCCN1c1cc(-c2ccnn2C)c2ccnc(-c3ccn[nH]3)c2n1` (configuration not stated), the viability, T/C was 48.9% and 46% and 62.1%.

Regarding `CC1COCCN1c1cc(C2(S(C)(=N)=O)CC2)nc(-c2ccnc3[nH]ccc23)n1` (configuration not stated), the viability, T/C was 96.4% and 98.4% and 99.3%.

Regarding `CCCS(=O)(=O)Nc1ccc(F)c(C(=O)c2c[nH]c3ncc(-c4ccc(Cl)cc4)cc23)c1F`, the viability, T/C was 110% and 103% and 109%.

Regarding `CCc1cc2c(N3CCc4c(cc(Cn5ccnc5)cc4-c4cn(C)nc4C(F)(F)F)C3=O)ccnc2c(OC)n1`, the viability, T/C is 112% (2×) and 103%.

As for `CNCc1ccc(-c2[nH]c3cc(F)cc4c3c2CCNC4=O)cc1`, the viability, T/C was 108% and 118% and 102%.

Take `COc1cc(C2c3cc4c(cc3C(OC3OC5COC(C)OC5C(O)C3O)C3COC(=O)C23)OCO4)cc(OC)c1O` (configuration not stated): the viability, T/C was 91.6% and 99.4% and 94.1%.

On to `COc1cc2cc(C(=O)CCC(=O)O)sc2cc1OC`, for which the viability, T/C is 103% and 102% (2×).

Regarding `COc1ccc([C@@H](O)c2cc(-c3ncnc4cc(N5CCOCC5)ccc34)c(F)cc2Cl)nn1`, the viability, T/C was 80.1% and 82.6% and 85%.

`Nc1ccn(C2OC(CO)C(O)C2(F)F)c(=O)n1` (configuration not stated): the viability, T/C is 64.6% and 81.7% and 60.8%.

Turning to `O=C(c1cc(Cc2n[nH]c(=O)c3ccccc23)ccc1F)N1CCN(C(=O)C2CC2)CC1`, the viability, T/C is 101% and 102% and 114%.

The assay is the same for the next values; noted with them: compound 10 µM; stronger effect = lower value.
`C=CC(=O)N1CCN(c2nc(=O)n(-c3c(C)ccnc3C(C)C)c3nc(-c4c(O)cccc4F)c(F)cc23)C(C)C1` (configuration not stated): the viability, T/C is 113% (2×) and 96.9%.

As to `CC(C)n1c(=O)n(C)c2cnc3cc(F)c(-c4ccc(OCCCN5CCCCC5)nc4)cc3c21`, the viability, T/C is 73.4% and 83.2% and 79%.

As to `CC1COCCN1c1cc(-c2ccnn2C)c2ccnc(-c3ccn[nH]3)c2n1` (configuration not stated), the viability, T/C is 50.2% and 47.4% and 57.1%.

For `CC1COCCN1c1cc(C2(S(C)(=N)=O)CC2)nc(-c2ccnc3[nH]ccc23)n1` (configuration not stated), the viability, T/C is 80.5% and 96.6% and 81.2%.

Regarding `CCCS(=O)(=O)Nc1ccc(F)c(C(=O)c2c[nH]c3ncc(-c4ccc(Cl)cc4)cc23)c1F`, the viability, T/C was 87.5% and 88.3% and 86%.

For the compound `CCc1cc2c(N3CCc4c(cc(Cn5ccnc5)cc4-c4cn(C)nc4C(F)(F)F)C3=O)ccnc2c(OC)n1`, the viability, T/C is 103% and 96% and 100%.

As for `CNCc1ccc(-c2[nH]c3cc(F)cc4c3c2CCNC4=O)cc1`, the viability, T/C is 102% and 111% and 103%.

Consider `COc1cc(C2c3cc4c(cc3C(OC3OC5COC(C)OC5C(O)C3O)C3COC(=O)C23)OCO4)cc(OC)c1O` (configuration not stated), for which the viability, T/C is 90.2% and 90.4% and 80.9%.

Regarding `COc1cc2cc(C(=O)CCC(=O)O)sc2cc1OC`, the viability, T/C is 99.8% and 93.7% and 102%.

As to `COc1ccc([C@@H](O)c2cc(-c3ncnc4cc(N5CCOCC5)ccc34)c(F)cc2Cl)nn1`, the viability, T/C was 50% and 59% and 56.5%.

Turning to `Nc1ccn(C2OC(CO)C(O)C2(F)F)c(=O)n1` (configuration not stated), the viability, T/C was 57.5% and 64.6% and 53%.

For `O=C(c1cc(Cc2n[nH]c(=O)c3ccccc23)ccc1F)N1CCN(C(=O)C2CC2)CC1`, the viability, T/C was 97.8% and 97.4% and 107%.

Still in this assay, the particulars now being: curve of compound.
Turning to `C=CC(=O)N1CCN(c2nc(=O)n(-c3c(C)ccnc3C(C)C)c3nc(-c4c(O)cccc4F)c(F)cc23)C(C)C1` (configuration not stated), the concentration for half-maximal inhibition (IC50) (as a rule, the midpoint of a concentration-inhibition curve) was greater than 10 µM.

As to `CC(C)n1c(=O)n(C)c2cnc3cc(F)c(-c4ccc(OCCCN5CCCCC5)nc4)cc3c21`, the IC50 is greater than 10 µM.

`CC1COCCN1c1cc(-c2ccnn2C)c2ccnc(-c3ccn[nH]3)c2n1` (configuration not stated): the IC50 is 4.35 µM and 1.4 µM and > 10 µM.

Regarding `CC1COCCN1c1cc(C2(S(C)(=N)=O)CC2)nc(-c2ccnc3[nH]ccc23)n1` (configuration not stated), the IC50 was greater than 10 µM.

As to `CCCS(=O)(=O)Nc1ccc(F)c(C(=O)c2c[nH]c3ncc(-c4ccc(Cl)cc4)cc23)c1F`, the IC50 was greater than 10 µM.

In the case of `CCc1cc2c(N3CCc4c(cc(Cn5ccnc5)cc4-c4cn(C)nc4C(F)(F)F)C3=O)ccnc2c(OC)n1`, the IC50 was greater than 10 µM.

On to `CNCc1ccc(-c2[nH]c3cc(F)cc4c3c2CCNC4=O)cc1`, for which the IC50 was greater than 10 µM.

As for `COc1cc(C2c3cc4c(cc3C(OC3OC5COC(C)OC5C(O)C3O)C3COC(=O)C23)OCO4)cc(OC)c1O` (configuration not stated), the IC50 is greater than 10 µM.

As for `COc1cc2cc(C(=O)CCC(=O)O)sc2cc1OC`, the IC50 is greater than 10 µM.

For the compound `COc1ccc([C@@H](O)c2cc(-c3ncnc4cc(N5CCOCC5)ccc34)c(F)cc2Cl)nn1`, the IC50 is greater than 10 µM.

Turning to `Nc1ccn(C2OC(CO)C(O)C2(F)F)c(=O)n1` (configuration not stated), the IC50 is greater than 10 µM.

`O=C(c1cc(Cc2n[nH]c(=O)c3ccccc23)ccc1F)N1CCN(C(=O)C2CC2)CC1`: the IC50 is greater than 10 µM.
